Values quoted from earlier work, collected in patent US6673333B1, “Functional MRI agents for cancer imaging” (Research Corporation Technologies, Inc., priority 2000, dated 2004).

Key:
[1] = thermodynamic stability of the Gd(III) chelate complex
[2] = at physiological pH

Row | SMILES | stability constant (K), formation constant, logK [1] | dissociation kinetics [2]
1 | O=C([O-])CN(CCN(CC(=O)[O-])CC(=O)[O-])CCN(CC(=O)[O-])CC(=O)[O-].[Gd+3] [Gd(DTPA)^2−] | 22.4 | 
2 | O=C([O-])CN1CCN(CC(=O)[O-])CCN(CC(=O)O)CCN(CC(=O)[O-])CC1.[Gd+3] [Gd-DOTA] | 28.5 | very slow
